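Compound exposure: 48 hours, 5 concentrations, 96-well plates. GI50 = concentration required for 50% inhibition of growth.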 Active and inactive are the calls of the source. Rule as the data show it: active = GI50 up to about 1.1 µM and inactive = higher.
Key:
Experiment in all cases: NCI-60 cell line screen, 48 h
[1] = tested on: OVCAR-5
[2] = tested on: 786-0
[3] = tested on: NCI-H522
[4] = tested on: Malme-3M
[5] = tested on: UACC-257
[6] = tested on: U-251
[7] = tested on: SNB-19
[8] = tested on: NCI/ADR-RES
[9] = tested on: OVCAR-4
[10] = tested on: SW-620
[11] = tested on: SR
[12] = tested on: HCT-15
[13] = tested on: OVCAR-3
[14] = tested on: ACHN
[15] = tested on: SN12C
[16] = tested on: TK-10
[17] = tested on: RXF 393
[18] = tested on: MDA-N
[19] = tested on: MCF7
[20] = tested on: BT-549

Compound | GI50 [1] | GI50 [2] | GI50 [3] | GI50 [4] | GI50 [5] | GI50 [6] | GI50 [7] | GI50 [8] | GI50 [9] | GI50 [10] | GI50 [11] | GI50 [12] | GI50 [13] | GI50 [14] | GI50 [15] | GI50 [16] | GI50 [17] | GI50 [18] | GI50 [19] | GI50 [20]
O=C(O)c1cc(-c2ccc3c(O)ccc(O)c3c2)ccc1O | 18.3 µM (inactive) | 16.6 µM (inactive) | 15.3 µM (inactive) | 18.7 µM (inactive) | 17.4 µM (inactive) | 21.4 µM (inactive) | 40.9 µM (inactive) | 28.1 µM (inactive) | 16.5 µM (inactive) | 5.82 µM (inactive) | 3.51 µM (inactive) | 16.9 µM | 20.9 µM (inactive) | 19.3 µM (inactive) | 15.7 µM (inactive) | 20.3 µM (inactive) | 12.9 µM (inactive) | 16.7 µM (inactive) | 22.6 µM (inactive) | –
c1ccc(CCN2CCCCCC2)nc1 | > 100 µM (inactive) | > 100 µM (inactive) | > 100 µM (inactive) | > 100 µM (inactive) | – | > 100 µM (inactive) | > 100 µM (inactive) | > 100 µM (inactive) | > 100 µM (inactive) | > 100 µM (inactive) | – | > 100 µM | > 100 µM (inactive) | > 100 µM (inactive) | > 100 µM (inactive) | > 100 µM (inactive) | > 100 µM (inactive) | – | > 100 µM (inactive) | > 100 µM (inactive)
c1ccc(C2(c3cc4ccccc4[nH]3)OCCO2)nc1 | > 100 µM (inactive) | > 100 µM (inactive) | – | > 100 µM (inactive) | > 100 µM (inactive) | > 100 µM (inactive) | > 100 µM (inactive) | > 100 µM (inactive) | > 100 µM (inactive) | > 100 µM (inactive) | – | > 100 µM | > 100 µM (inactive) | > 100 µM (inactive) | – | > 100 µM (inactive) | > 100 µM (inactive) | – | > 100 µM (inactive) | > 100 µM (inactive)
COC(=O)C(C)(C)/N=C/N(C)C | > 100 µM (inactive) | > 100 µM (inactive) | > 100 µM (inactive) | > 100 µM (inactive) | > 100 µM (inactive) | > 100 µM (inactive) | > 100 µM (inactive) | – | > 100 µM (inactive) | 28.4 µM (inactive) | > 100 µM (inactive) | > 100 µM | > 100 µM (inactive) | > 100 µM (inactive) | > 100 µM (inactive) | > 100 µM (inactive) | 86.5 µM (inactive) | – | – | –
O=C(N/C(=C\NC1=NCCS1)C(=O)N1CSC[C@@H]1C(=O)O)c1ccccc1 | > 100 µM (inactive) | 77.8 µM (inactive) | – | – | > 100 µM (inactive) | > 100 µM (inactive) | > 100 µM (inactive) | > 100 µM (inactive) | > 100 µM (inactive) | > 100 µM (inactive) | – | > 100 µM | > 100 µM (inactive) | > 100 µM (inactive) | > 100 µM (inactive) | > 100 µM (inactive) | > 100 µM (inactive) | > 100 µM (inactive) | > 100 µM (inactive) | –
COc1cc(C=O)cc(/C=N/n2c3ccccc3c3ccccc32)c1O | 45.1 µM (inactive) | 11.9 µM (inactive) | 33.6 µM (inactive) | 3.52 µM (inactive) | 26.8 µM (inactive) | 9.04 µM (inactive) | 21.3 µM (inactive) | – | 74 µM (inactive) | 9.73 µM (inactive) | 4.72 µM (inactive) | 14.5 µM | 45.2 µM (inactive) | 6.12 µM (inactive) | 5.46 µM (inactive) | 36.9 µM (inactive) | 25 µM (inactive) | – | 3.78 µM (inactive) | 2.94 µM (inactive)
O=C1CN(/N=C/c2ccc(-c3ccc(F)cc3)o2)C(=O)N1 | > 100 µM (inactive) | > 100 µM (inactive) | 21.1 µM (inactive) | 47.5 µM (inactive) | 21.8 µM (inactive) | 89.3 µM (inactive) | 83.9 µM (inactive) | 25.9 µM (inactive) | – | 43 µM (inactive) | 24 µM (inactive) | 39 µM | > 100 µM (inactive) | > 100 µM (inactive) | 91.2 µM (inactive) | 69.2 µM (inactive) | > 100 µM (inactive) | 16.9 µM (inactive) | 49.1 µM (inactive) | –
CCC/C=C\C=C\C1(NS(=O)(=O)c2ccc(C)cc2)CCC(C(C)(C)C)CC1 (stereo not given) | 21.5 µM (inactive) | 10.2 µM (inactive) | 3.2 µM (inactive) | 14.9 µM (inactive) | 16.8 µM (inactive) | 12.5 µM (inactive) | 35.5 µM (inactive) | – | 17.1 µM (inactive) | 17.9 µM (inactive) | 3.15 µM (inactive) | 17.5 µM | 7.01 µM (inactive) | 18.2 µM (inactive) | 11.2 µM (inactive) | 24.9 µM (inactive) | 13.7 µM (inactive) | – | – | –
Clc1ccccc1C(n1cc(Br)cn1)n1cc(Br)cn1 | 11.4 µM (inactive) | > 10 µM (inactive) | 71.9 µM (inactive) | 17.2 µM (inactive) | 14.7 µM (inactive) | 18.5 µM (inactive) | 27.4 µM (inactive) | – | > 100 µM (inactive) | > 10 µM (inactive) | 18.8 µM (inactive) | > 10 µM | > 10 µM (inactive) | 16.5 µM (inactive) | 16.3 µM (inactive) | 23.6 µM (inactive) | 16.7 µM (inactive) | – | – | –
O=P1(Oc2ccccc2)N(CCCl)CCN1c1ccccc1 (stereo not given) | > 100 µM (inactive) | > 100 µM (inactive) | > 100 µM (inactive) | > 100 µM (inactive) | 79.6 µM (inactive) | > 100 µM (inactive) | > 100 µM (inactive) | 83.6 µM (inactive) | 23.4 µM (inactive) | > 100 µM (inactive) | 79.3 µM (inactive) | > 100 µM | > 100 µM (inactive) | > 100 µM (inactive) | > 100 µM (inactive) | 81.5 µM (inactive) | 58.5 µM (inactive) | > 100 µM (inactive) | 70.1 µM (inactive) | –
CCCCCCCCCCCCCCCCCCOCC(O)COP(=O)(O)OCC1OC(n2ccc(N)nc2=O)C(O)C1O (stereo not given) | 33.6 µM (inactive) | 10.9 µM (inactive) | 13.4 µM (inactive) | 7.05 µM (inactive) | 24.8 µM (inactive) | 11.9 µM (inactive) | 11.6 µM (inactive) | 19.1 µM (inactive) | 28.3 µM (inactive) | 35.6 µM (inactive) | 17 µM (inactive) | 15.5 µM | 43.5 µM (inactive) | 11.3 µM (inactive) | 36.6 µM (inactive) | 14.2 µM (inactive) | 12.9 µM (inactive) | 93.8 µM (inactive) | 22 µM (inactive) | –
CC(=O)OCC1OC(OCc2ccccc2)C(Br)C(OC(C)=O)C1OC(C)=O (stereo not given) | > 100 µM (inactive) | > 100 µM (inactive) | > 100 µM (inactive) | > 100 µM (inactive) | > 100 µM (inactive) | > 100 µM (inactive) | > 100 µM (inactive) | – | > 100 µM (inactive) | > 100 µM (inactive) | > 100 µM (inactive) | > 100 µM | > 100 µM (inactive) | > 100 µM (inactive) | > 100 µM (inactive) | > 100 µM (inactive) | > 100 µM (inactive) | – | – | –
CC(=O)C1CC=C(C)CC1 (stereo not given) | > 100 µM (inactive) | > 100 µM (inactive) | > 100 µM (inactive) | > 100 µM (inactive) | > 100 µM (inactive) | > 100 µM (inactive) | > 100 µM (inactive) | – | > 100 µM (inactive) | > 100 µM (inactive) | > 100 µM (inactive) | > 100 µM | > 100 µM (inactive) | > 100 µM (inactive) | > 100 µM (inactive) | > 100 µM (inactive) | > 100 µM (inactive) | – | – | –
O=C1O/C(=C(/Br)c2ccc(Cl)c(Cl)c2)c2ccccc21 | > 10 µM (inactive) | > 10 µM (inactive) | > 10 µM (inactive) | – | > 10 µM (inactive) | > 10 µM (inactive) | > 10 µM (inactive) | > 10 µM (inactive) | > 10 µM (inactive) | > 10 µM (inactive) | > 10 µM (inactive) | > 10 µM | > 10 µM (inactive) | > 10 µM (inactive) | > 10 µM (inactive) | > 10 µM (inactive) | > 10 µM (inactive) | > 10 µM (inactive) | 7.67 µM (inactive) | –
O=C1c2ccc3c4ccccc4n(-c4ccccc4)c3c2C(=O)N1c1ccc(Cl)cc1 | > 100 µM (inactive) | > 100 µM (inactive) | > 100 µM (inactive) | > 100 µM (inactive) | > 100 µM (inactive) | > 100 µM (inactive) | > 100 µM (inactive) | – | > 100 µM (inactive) | > 100 µM (inactive) | > 100 µM (inactive) | > 100 µM | > 100 µM (inactive) | > 100 µM (inactive) | > 100 µM (inactive) | > 100 µM (inactive) | > 100 µM (inactive) | – | – | –
O=C(CBr)N1CCC2(CC1)SSC1(CCN(C(=O)CBr)CC1)S2 | 1.39 µM (inactive) | 0.614 µM (active) | – | – | 2.76 µM (inactive) | 1.59 µM (inactive) | 1.58 µM (inactive) | 1.97 µM (inactive) | 2.02 µM (inactive) | 0.332 µM (active) | 0.178 µM (active) | 1.44 µM | – | 1.54 µM (inactive) | 1.93 µM (inactive) | – | – | 1.31 µM (inactive) | – | –
CCOC1(COP(=O)(OCc2ccccc2)OCc2ccccc2)COC(COP(=O)(OCc2ccccc2)OCc2ccccc2)(OCC)CO1 (stereo not given) | > 100 µM (inactive) | > 100 µM (inactive) | > 100 µM (inactive) | > 100 µM (inactive) | > 100 µM (inactive) | > 100 µM (inactive) | > 100 µM (inactive) | – | 4.61 µM (inactive) | > 100 µM (inactive) | > 100 µM (inactive) | > 100 µM | > 100 µM (inactive) | 7.82 µM (inactive) | > 100 µM (inactive) | > 100 µM (inactive) | 4.33 µM (inactive) | – | – | –
